Patent US8008354B2, “Death receptor sensitizing compounds and methods of use therefor” (Burnham Institute for Medical Research, priority 2006, dated 2011)

How the values were obtained:
[1] = system: PPC-1 cells; assay: Nuclear fragmentation of suspension PPC-1 cells overexpressing FLIP, CrmA or BclXL; assay type: cell-based, human; details: 5809354 60 μM or staurosporine 0.5 μM, thirty hours
Procedure: FIG. 15. 5809354 sensitizes cells to anoikis through a caspase 8 dependent mechanism. (A) PPC-1 cells (5×10^4) were cultured under suspension conditions overnight and then treated with 5809354 in the presence or absence of the pan-caspase inhibitor z-VAD-fink (100 μM). Thirty hours after incubation, anoikis was determined by flow cytometry to detect cell surface annexin V expression and PI uptake. Data represents the mean±SEM percent of viable cells or colonies compared to untreated controls. (B) PPC-1 cells (5×10^4) were cultured in suspension conditions overnight and then treated with 5809354 (60 μM). At increasing times after treatment, caspase activation was detected with FITC-labeled peptides that bind preferentially and irreversibly to caspase 3/7, 8, or 9. Caspase activation was monitored by flow cytometry to quantify the percentage of fluorescently labeled cells. […] At increasing times after incubation, total cellular protein was isolated and analyzed by SDS-PAGE immunoblotting using anti-caspase 8 and anti-actin antibodies. * indicates cleaved caspase 8. […] Thirty hours after incubation, apoptosis was measured by cell surface annexin V expression and PI uptake. […] Ten hours after incubation, cell viability was measured using the MTS assay. […] EGFP expression and nuclear morphology were analyzed by fluorescence microscopy. […]

[2] = system: solid tumor cell lines; assay: MTT cell viability of a spectrum of tumor cell lines with or without CH-11; assay type: cell-based; details: 10 tumor cell lines, CH-11 100 ng/mL, MTT 24 hours
Procedure: FIG. 3. Compounds 6094911, 5809354, and 5569100 sensitize a spectrum of tumor cells to CH-11 anti-FAS antibody. Solid tumor cell lines were seeded overnight in 96 well plates at a density of 1×10^4 cells per well. The next day, cells were treated with increasing concentrations of compound 6094911, 5809354, or 5569100 with (square) or without (circle) CH-11 antibody (100 ng/mL). Cell viability was measured 24 hours later by MTT assay. Cell viability is expressed as a mean percentage of untreated cells+SD (n=3).
Cell death assays. Cell viability was measured by MTT and MTS assays, essentially as described in Schimmer et al. (2004). Absorbance readings were plotted against a standard curve to derive the corresponding cell number, and cell viability was expressed as a percentage relative to untreated cells. Apoptosis was measured by flow cytometric analysis of Annexin V surface expression after staining cells with FITC-anti-Annexin V and propidium iodide (PI) (Biovision, Mountain View, Calif.), as described in Pederson et al. (2002).
To assess the spectrum of activity of the small molecule FAS sensitizers, an additional 9 malignant cell lines derived from breast, ovarian, and prostate carcinomas were treated with increasing concentrations of the sensitizers in the presence or absence of CH-11. […]

Row | Compound | effect of overexpressed FLIP, CrmA or BclXL on anoikis [1] | tumor cell lines sensitized to CH-11 [2]
1 | 4-(4-chloro-2-methylphenoxy)-N-hydroxybutanamide [compound 5809354] | attenuated 5809354-mediated anoikis | sensitized the same tumor lines with the exception of HT29
2 | CC(=O)CC(=O)Nc1ccc(Cl)c(C(F)(F)F)c1 [compound 6094911, N-[4-chloro-3-(trifluoromethyl)phenyl]-3-oxobutanamide] |  | 4 of 10
3 | CN[C@@H]1C[C@H]2O[C@@](C)([C@@H]1OC)n1c3ccccc3c3c4c(c5c6ccccc6n2c5c31)C(=O)NC4 [staurosporine, reference compound] | overexpression of BclXL, but not CrmA, protected | 
